From the NIST ThermoML archive (doi:10.1021/je8008864)

Assay: mn = molality of the nth substance listed, in mol/kg
Details: 101 kPa, Liquid; for viscosity: Rotational; for mass density: Vibrating tube method

CNCCC=C1c2ccccc2CCc2ccccc21.Cl + O
Details | mass density [kg/m3] | viscosity [mPa·s]
293.15 K, m1 = 0.0075 | 998.486 | 1.035
293.15 K, m1 = 0.01 | 998.545 | 1.035
293.15 K, m1 = 0.0125 | 998.599 | 1.036
293.15 K, m1 = 0.0152 | 998.645 | 1.036
293.15 K, m1 = 0.0175 | 998.668 | 1.037
293.15 K, m1 = 0.02 | 998.705 | 1.037
293.15 K, m1 = 0.025 | 998.721 | 1.038
298.15 K, m1 = 0.0076 | 997.322 | 0.9368
298.15 K, m1 = 0.01 | 997.382 | 0.937
298.15 K, m1 = 0.0125 | 997.428 | 0.9374
298.15 K, m1 = 0.0152 | 997.469 | 0.9376
298.15 K, m1 = 0.0175 | 997.499 | 0.9379
298.15 K, m1 = 0.02 | 997.521 | 0.9382
298.15 K, m1 = 0.025 | 997.545 | 0.9388
303.15 K, m1 = 0.0076 | 995.904 | 0.8338
303.15 K, m1 = 0.01 | 995.959 | 0.8339
303.15 K, m1 = 0.0125 | 996.001 | 0.8342
303.15 K, m1 = 0.0152 | 996.045 | 0.8345
303.15 K, m1 = 0.0175 | 996.065 | 0.8348
303.15 K, m1 = 0.02 | 996.085 | 0.8349
303.15 K, m1 = 0.025 | 996.105 | 0.8356
308.15 K, m1 = 0.0076 | 994.285 | 0.7279
308.15 K, m1 = 0.01 | 994.335 | 0.7281
308.15 K, m1 = 0.0125 | 994.379 | 0.7283
308.15 K, m1 = 0.0152 | 994.409 | 0.7285
308.15 K, m1 = 0.0175 | 994.435 | 0.7286
308.15 K, m1 = 0.02 | 994.455 | 0.7289
308.15 K, m1 = 0.025 | 994.465 | 0.7293
310.15 K, m1 = 0.0076 | 993.565 | 0.6925
310.15 K, m1 = 0.01 | 993.621 | 0.6928
310.15 K, m1 = 0.0125 | 993.659 | 0.6929
310.15 K, m1 = 0.0152 | 993.689 | 0.6931
310.15 K, m1 = 0.0175 | 993.712 | 0.6932
310.15 K, m1 = 0.02 | 993.73 | 0.6935
310.15 K, m1 = 0.025 | 993.741 | 0.6938
313.15 K, m1 = 0.0076 | 992.443 | 0.6556
313.15 K, m1 = 0.01 | 992.499 | 0.6557
313.15 K, m1 = 0.0125 | 992.539 | 0.6558
313.15 K, m1 = 0.0152 | 992.571 | 0.656
313.15 K, m1 = 0.0175 | 992.592 | 0.6562
313.15 K, m1 = 0.02 | 992.601 | 0.6564
313.15 K, m1 = 0.025 | 992.609 | 0.6568

CC(CN(C)C)CN1c2ccccc2CCc2ccccc21.O=C(O)/C=C\C(=O)O (stereo not drawn) [trimipramine maleate] + O
Details | mass density [kg/m3] | viscosity [mPa·s]
293.15 K, m1 = 0.0075 | 998.499 | 1.035
293.15 K, m1 = 0.01 | 998.566 | 1.035
293.15 K, m1 = 0.0125 | 998.625 | 1.036
293.15 K, m1 = 0.0152 | 998.675 | 1.036
293.15 K, m1 = 0.0175 | 998.715 | 1.037
293.15 K, m1 = 0.02 | 998.745 | 1.038
293.15 K, m1 = 0.025 | 998.799 | 1.04
298.15 K, m1 = 0.0076 | 997.329 | 0.937
298.15 K, m1 = 0.01 | 997.396 | 0.9373
298.15 K, m1 = 0.0125 | 997.455 | 0.9376
298.15 K, m1 = 0.0152 | 997.499 | 0.9379
298.15 K, m1 = 0.0175 | 997.535 | 0.9382
298.15 K, m1 = 0.02 | 997.569 | 0.9385
298.15 K, m1 = 0.025 | 997.601 | 0.9393
303.15 K, m1 = 0.0076 | 995.919 | 0.8339
303.15 K, m1 = 0.01 | 995.981 | 0.8342
303.15 K, m1 = 0.0125 | 996.031 | 0.8345
303.15 K, m1 = 0.0152 | 996.081 | 0.8348
303.15 K, m1 = 0.0175 | 996.105 | 0.835
303.15 K, m1 = 0.02 | 996.141 | 0.8354
303.15 K, m1 = 0.025 | 996.175 | 0.8361
308.15 K, m1 = 0.0076 | 994.296 | 0.7339
308.15 K, m1 = 0.01 | 994.355 | 0.7341
308.15 K, m1 = 0.0125 | 994.401 | 0.7343
308.15 K, m1 = 0.0152 | 994.455 | 0.7346
308.15 K, m1 = 0.0175 | 994.475 | 0.7348
308.15 K, m1 = 0.02 | 994.515 | 0.7351
308.15 K, m1 = 0.025 | 994.535 | 0.7355
310.15 K, m1 = 0.0076 | 993.58 | 0.6928
310.15 K, m1 = 0.01 | 993.638 | 0.693
310.15 K, m1 = 0.0125 | 993.681 | 0.6932
310.15 K, m1 = 0.0152 | 993.721 | 0.6934
310.15 K, m1 = 0.0175 | 993.749 | 0.6937
310.15 K, m1 = 0.02 | 993.769 | 0.6939
310.15 K, m1 = 0.025 | 993.799 | 0.6943
313.15 K, m1 = 0.0076 | 992.458 | 0.6561
313.15 K, m1 = 0.01 | 992.506 | 0.6564
313.15 K, m1 = 0.0125 | 992.551 | 0.6566
313.15 K, m1 = 0.0152 | 992.589 | 0.6568
313.15 K, m1 = 0.0175 | 992.609 | 0.6571
313.15 K, m1 = 0.02 | 992.615 | 0.6573
313.15 K, m1 = 0.025 | 992.635 | 0.6579
